Drawing on patent US12384776B2, “Compounds and uses thereof” (Foghorn Therapeutics Inc., priority 2019, dated 2025), this text covers IC50 for 41 molecules.

SMILES strings stand for the structures.

Nanoluciferase-BRD9 fusion protein (3×FLAG-NLuc-BRD9) in SYO-1 cells, sequence (Q9H8M2 whole entry, the tested form may be a part): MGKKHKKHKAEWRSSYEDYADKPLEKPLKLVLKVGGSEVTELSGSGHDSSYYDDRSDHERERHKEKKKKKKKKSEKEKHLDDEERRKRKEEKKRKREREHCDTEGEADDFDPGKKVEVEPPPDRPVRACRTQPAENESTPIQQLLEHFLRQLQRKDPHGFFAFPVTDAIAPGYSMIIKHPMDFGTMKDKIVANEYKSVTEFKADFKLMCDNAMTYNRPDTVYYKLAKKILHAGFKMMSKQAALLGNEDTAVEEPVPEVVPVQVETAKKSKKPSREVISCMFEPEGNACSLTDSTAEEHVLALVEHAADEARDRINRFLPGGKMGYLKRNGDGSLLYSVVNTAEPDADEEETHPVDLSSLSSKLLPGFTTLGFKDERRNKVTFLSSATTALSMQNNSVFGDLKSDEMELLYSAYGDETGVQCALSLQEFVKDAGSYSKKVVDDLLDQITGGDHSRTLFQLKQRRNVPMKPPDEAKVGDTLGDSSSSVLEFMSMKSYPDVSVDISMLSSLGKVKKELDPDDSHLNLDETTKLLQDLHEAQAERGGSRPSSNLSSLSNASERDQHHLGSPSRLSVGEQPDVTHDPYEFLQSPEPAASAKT

The first assay concerns the target Nanoluciferase-BRD9 fusion protein (3×FLAG-NLuc-BRD9) in SYO-1 cells (Homo sapiens (Human), UniProt Q9H8M2). In words: SYO1 BRD9 NanoLuc degradation assay. In kind it is cell-based. The conditions noted are these: SYO-1 cells expressing 3×FLAG-NLuc-BRD9, 6 hours incubation, top dose 1 μM. The method in brief:
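Stable SYO-1 line expressing 3×FLAG-NLuc-BRD9, treated with 10-point 3-fold dilutions (top 1 μM final) for 6 hours. Nanoluciferase luminescence read with Nano-Glo reagent. % inhibition relative to DMSO (high control) and 1 μM reference BRD9 degrader (low control).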
Regarding `COc1cc(-c2cn(C)c(=O)c3c2CCN(C(=O)NCCN2CCC4(CCN(c5ccc6c(c5)C(=O)N(C5CCC(=O)NC5=O)C6=O)C4)C2)C3)cc(OC)c1CN(C)C` (centres unmarked) [Compound D190], the IC50 (as a rule, the midpoint of a concentration-inhibition curve) was 100 to 1000 nM. Same read-out and setting: then `CNC(=O)N1CCc2c(-c3cc(OC)c(CN4CCC(C5(CN6CCN(c7ccc8c(c7)C(=O)N(C7CCC(=O)NC7=O)C8=O)CC6)CC5)CC4)c(OC)c3)cn(C)c(=O)c2C1` (centres unmarked) [Compound D174], with below 10 nM. Same read-out and setting: for `COc1cc(-c2cn(C)c(=O)c3c2CCN(C(=O)NCCCN2CCC4(CC2)CCN(c2ccc5c(c2)C(=O)N(C2CCC(=O)NC2=O)C5=O)C4)C3)cc(OC)c1CN(C)C` (centres unmarked) [Compound D236] the value was 10 to 100 nM. Same read-out and setting: for `CNC(=O)N1CCc2c(-c3cc(OC)c(CN4CCC(CCN5CCN(c6ccc7nc(C)n(C8CCC(=O)NC8=O)c(=O)c7c6)CC5)CC4)c(OC)c3)cn(C)c(=O)c2C1` (centres unmarked) [Compound D65] the value was 100 to 1000 nM. With `CNC(=O)N1CCc2c(-c3cc(OC)c(CN4CCC(CCCN5CCN(C6CCC(=O)NC6=O)C(=O)C5)CC4)c(OC)c3)cn(C)c(=O)c2C1` (centres unmarked) [Compound D67], the IC50 lay within 100 to 1000 nM. With `CNC(=O)N1CCc2c(-c3cc(OC)c(CN4CC(N5CCN(c6ccc7c(c6)C(=O)N(C6CCC(=O)NC6=O)C7=O)CC5)C4)c(OC)c3)cn(C)c(=O)c2C1` (centres unmarked) [Compound D132], the half-inhibitory concentration (IC50) was below 10 nM. Still for that read-out and setting: then `COc1cc(-c2cn(C)c(=O)c3c2CCN(C(=O)NCCN2CCC(OC4CCN(c5ccc6c(c5)C(=O)N(C5CCC(=O)NC5=O)C6=O)CC4)C2)C3)cc(OC)c1CN(C)C` (centres unmarked) [Compound D204], with 100 to 1000 nM; and `COc1cc(-c2cn(C)c(=O)c3c2CCN(C(=O)NCCN2CC4(CCN(c5ccc6c(c5)C(=O)N(C5CCC(=O)NC5=O)C6=O)CC4)C2)C3)cc(OC)c1CN(C)C` (centres unmarked) [Compound D191], with 100 to 1000 nM. The same measure, in the same setting: for `CNC(=O)N1CCc2c(-c3cc(OC)c(CN(C)C45CC(C(=O)NCCCCCOc6cccc7c6C(=O)N(C6CCC(=O)NC6=O)C7=O)(C4)C5)c(OC)c3)cn(C)c(=O)c2C1` (centres unmarked) [Compound D283] the value was below 10 nM; for `CNC(=O)N1CCc2c(-c3cc(OC)c(CN4CC(S(=O)(=O)NCCOc5ccc6c(c5)C(=O)N(C5CCC(=O)NC5=O)C6=O)C4)c(OC)c3)cn(C)c(=O)c2C1` (centres unmarked) [Compound D279], 100 to 1000 nM; for `CNC(=O)N1CCc2c(-c3cc(OC)c(CN4CCC(CN5CCC6(CC5)CN(c5ccc7c(c5)CN(C5CCC(=O)NC5=O)C7=O)C6)CC4)c(OC)c3)cn(C)c(=O)c2C1` (centres unmarked) [Compound D56], below 10 nM.

With `COc1cc(-c2cn(C)c(=O)c3c2CCN(C(=O)NCC2CC4CN(CCCCN5CCN(c6ccc7c(c6)C(=O)N(C6CCC(=O)NC6=O)C7=O)CC5)CC4C2)C3)cc(OC)c1CN(C)C` (centres unmarked) [Compound D232], the IC50 was 10 to 100 nM. The same measure, in the same setting: then `COc1cc(-c2cn(C)c(=O)c3c2CCN(C(=O)NC2CC4(CCN(CCCOc5ccc6c(c5)C(=O)N(C5CCC(=O)NC5=O)C6=O)CC4)C2)C3)cc(OC)c1CN(C)C` (centres unmarked) [Compound D252], with 100 to 1000 nM; and `COc1cc(-c2cn(C)c(=O)c3c2CCN(C(=O)NC2C[C@@H]4CN(CCOc5ccc6c(c5)C(=O)N(C5CCC(=O)NC5=O)C6=O)C[C@H]24)C3)cc(OC)c1CN(C)C` (some centres unmarked) [Compound D249], with at least 1000 nM. Still for that read-out and setting: for `COc1cc(-c2cn(C)c(=O)c3c2CCN(C(=O)NC2CCC4(CCN(CCOc5ccc6c(c5)C(=O)N(C5CCC(=O)NC5=O)C6=O)C4)C2)C3)cc(OC)c1CN(C)C` (centres unmarked) [Compound D215] the value was 100 to 1000 nM; for `CNC(=O)N1CCc2c(-c3cc(OC)c(CN4CCC5(CC4)CC(N4CCN(c6ccc7c(c6)C(=O)N(C6CCC(=O)NC6=O)C7=O)CC4)C5)c(OC)c3)cn(C)c(=O)c2C1` (centres unmarked) [Compound D255], below 10 nM; for `COc1cc(-c2cn(C)c(=O)c3c2CCN(C(=O)NC2CC2)C3)cc(OC)c1CN1CCC(CCN2CCN(c3ccc4c(c3)CN(C3CCC(=O)NC3=O)C4=O)CC2)CC1` (centres unmarked) [Compound D85], below 10 nM. Still for that read-out and setting: for `CNC(=O)N1CCc2c(-c3cc(OC)c(CN4CCC5(CC4)CC(Oc4ccc6c(c4)C(=O)N(C4CCC(=O)NC4=O)C6=O)C5)c(OC)c3)cn(C)c(=O)c2C1` (centres unmarked) [Compound D183] the value was below 10 nM. `COc1cc(-c2cn(C)c(=O)c3c2CCN(C(=O)NCCN2CCC4(CC2)CCN(c2ccc5c(c2)C(=O)N(C2CCC(=O)NC2=O)C5=O)C4)C3)cc(OC)c1CN(C)C` (centres unmarked) [Compound D209] came in with an IC50 of 10 to 100 nM. Same read-out and setting: then `COc1cc(-c2cn(C)c(=O)c3c2CCN(C(=O)NC2CC4(C2)CN(CCCOc2ccc5c(c2)C(=O)N(C2CCC(=O)NC2=O)C5=O)C4)C3)cc(OC)c1CN(C)C` (centres unmarked) [Compound D263], with 100 to 1000 nM; and `CNC(=O)N1CCc2c(-c3cc(OC)c(CN4CCC(CCN5CCC(c6ccc7c(c6)C(=O)N(C6CCC(=O)NC6=O)C7=O)CC5)CC4)c(OC)c3)cn(C)c(=O)c2C1` (centres unmarked) [Compound D113], with below 10 nM; and `CNC(=O)N1CCc2c(-c3cc(OC)c(CN4CCN(CCC5CCN(c6ccc7c(c6)C(=O)N(C6CCC(=O)NC6=O)C7=O)CC5)C(C#N)C4)c(OC)c3)cn(C)c(=O)c2C1` (centres unmarked) [Compound D93], with below 10 nM. `CNC(=O)N1CCc2c(-c3cc(OC)c(CN4CCN(CCC5CCN(c6ccc7c(c6)C(=O)N(c6ccc(F)cc6F)C7=O)CC5)CC4)c(OC)c3)cn(C)c(=O)c2C1` [Compound D70] displayed an IC50 of at least 1000 nM.

`[2H]C([2H])([2H])NC(=O)N1CCc2c(-c3cc(OC)c(CN4CCN(CCC5CCN(c6ccc7c(c6)C(=O)N(C6CCC(=O)NC6=O)C7=O)CC5)CC4)c(OC)c3)cn(C)c(=O)c2C1` (centres unmarked) [Compound D48] returned an IC50 below 10 nM. Still for that read-out and setting: for `COc1cc(-c2cn(C)c(=O)c3c2CCN(C(=O)NCCOCCOCCNc2cccc4nc(C)n(C5CCC(=O)NC5=O)c(=O)c24)C3)cc(OC)c1CN(C)C` (centres unmarked) [Compound D292] the value was 100 to 1000 nM; for `COCCNC(=O)N1CCc2c(-c3cc(OC)c(CN4CCN(CCC5CCN(c6ccc7c(c6)C(=O)N(C6CCC(=O)NC6=O)C7=O)CC5)CC4)c(OC)c3)cn(C)c(=O)c2C1` (centres unmarked) [Compound D43], below 10 nM. Same read-out and setting: then `CNC(=O)N1CCc2c(-c3cc(OC)c(CN4CC5CC4CC5CN4CCN(c5ccc6c(c5)C(=O)N(C5CCC(=O)NC5=O)C6=O)CC4)c(OC)c3)cn(C)c(=O)c2C1` (centres unmarked) [Compound D129], with 10 to 100 nM; and `CNC(=O)N1CCc2c(-c3cc(OC)c(CN4CC(Oc5ccc6c(c5)C(=O)N(C5CCC(=O)NC5=O)C6=O)C4)c(OC)c3)cn(C)c(=O)c2C1` (centres unmarked) [Compound D116], with below 10 nM; and `CNC(=O)N1CCc2c(-c3cc(OC)c(CN4CCN(c5ccn6c(=O)n(C7CCC(=O)NC7=O)nc6c5)CC4)c(OC)c3)cn(C)c(=O)c2C1` (centres unmarked) [Compound D61], with 100 to 1000 nM.

`CNC(=O)N1CCc2c(-c3cc(OC)c(CN4CC(S(=O)(=O)NCCCOc5cccc6c5C(=O)N(C5CCC(=O)NC5=O)C6=O)C4)c(OC)c3)cn(C)c(=O)c2C1` (centres unmarked) [Compound D280] gave an IC50 of 100 to 1000 nM.

The assay is the same for the next values; noted with them: SYO-1 cells, 6 hours, Table 6A.
`CNC(=O)N1CCc2c(-c3cc(OC)c(CN4CCC5(CC4)CN(C(=O)CCCCOc4cccc6c4C(=O)N(C4CCC(=O)NC4=O)C6=O)CCO5)c(OC)c3)cn(C)c(=O)c2C1` (centres unmarked) [Compound D4, 5-(4-[[4-(5-[[2-(2,6-dioxopiperidin-3-yl)-1,3-dioxoisoindol-4-yl]oxy]pentanoyl)-1-oxa-4,9-diazaspiro[5.5]undecan-9-yl]methyl]-3,5-dimethoxyphenyl)-N,7-dimethyl-8-oxo-3,4-dihydro-1H-2,7-naphthyridine-2-carboxamide formic acid] registered an IC50 above 10 nM. On the same count and under the same terms, then `CNC(=O)N1CCc2c(-c3cc(OC)c(CN4CC(NC(=O)CCCCCOc5cccc6c5C(=O)N(C5CCC(=O)NC5=O)C6=O)C4)c(OC)c3)cn(C)c(=O)c2C1` (centres unmarked) [Compound D16, 5-(4-[[3-(6-[[2-(2,6-dioxopiperidin-3-yl)-1,3-dioxoisoindol-4-yl]oxy]hexanamido)azetidin-1-yl]methyl]-3,5-dimethoxyphenyl)-N,7-dimethyl-8-oxo-3,4-dihydro-1H-2,7-naphthyridine-2-carboxamide formic acid], with above 10 nM.

The assay is the same for the next values; noted with them: SYO-1 cells, 6 hours, Table 6C.
The molecule `[2H]C([2H])([2H])n1cc(-c2cc(OC)c(CN3CCN(CCC4CCN(c5ccc6c(c5)C(=O)N(C5CCC(=O)NC5=O)C6)CC4)CC3)c(OC)c2)c2c(c1=O)CN(C(=O)NCC(F)F)CC2` (centres unmarked) [Compound D316] registered an IC50 of at least 1000 nM.

On to `CNC(=O)N1CCc2c(-c3cc(OC)c(CN4CCC(CN5CCC6(CN(c7ccc8c(c7)CN(C7CCC(=O)NC7=O)C8=O)C6)C(F)(F)C5)CC4)c(OC)c3)cn(C)c(=O)c2C1` (centres unmarked) [Compound D339], for which the 50% inhibitory concentration (IC50) is below 10 nM. The molecule `COc1cc(-c2cn(C)c(=O)c3c2CCC3)cc(OC)c1-c1ccc2c(c1)C(=O)N(C1CCC(=O)NC1=O)C2` (centres unmarked) [Compound D374] had an IC50 below 10 nM.

Consider `CCc1cc(-c2cn(C)c(=O)c3c2CCN(C(=O)NC)C3)cc(OC)c1CN1CCN(CCC2CCN(c3ccc4c(c3)C(=O)N(C3CCC(=O)NC3=O)C4)CC2)CC1` (centres unmarked) [Compound D327], for which the IC50 was below 10 nM. Same read-out and setting: then `COc1cc(-c2cn(C)c(=O)c3c2COC3)cc(OC)c1CN1CCC2(CC1)CN(c1ccc3c(c1)C(=O)N(C1CCC(=O)NC1=O)C3)C2` (centres unmarked) [Compound D357], with below 10 nM. The molecule `CNC(=O)N1CCc2c(-c3cc(OC)c(CN4CCC(CN5CCC6(CC5)CC(Oc5ccc7c(c5)C(=O)N(C5CCC(=O)NC5=O)C7=O)C6)CC4)c(OC)c3)cn(CF)c(=O)c2C1` (centres unmarked) [Compound D347] showed an IC50 below 10 nM.

The molecule `CNC(=O)N1CCc2c(-c3cc(OC)c(C4CN(c5ccc6c(c5)CN(C5CCC(=O)NC5=O)C6=O)C4)c(OC)c3)cn(C)c(=O)c2C1` (centres unmarked) [Compound D331] returned an IC50 of at least 10 nM. The same measure, in the same setting: for `COc1cc(-c2cn(C)c(=O)c3c2CCC3)cc(OC)c1CN1CCN(CCC2CCN(c3ccc4c(c3)C(=O)N(C3CCC(=O)NC3=O)C4)CC2)CC1` (centres unmarked) [Compound D348] the value was below 10 nM. Same read-out and setting: for `[2H]C([2H])([2H])NC(=O)N1CCc2c(-c3cc(OC)c(CN4[C@H](C)CN(CCC5CCN(c6ccc7c(c6)CN(C6CCC(=O)NC6=O)C7=O)CC5)C[C@H]4C)c(OC)c3)cn(C)c(=O)c2C1` (some centres unmarked) [Compound D324] the value was below 10 nM.
